In patent US20090111828A1, “L-ALANINE DERIVATIVES” (ASTRAZENECA AB, priority 2005, published 2009) one finds IC50 data, which are given here for 6 compounds.

Assay [1] has as its target T1, α5β1 integrin (Homo sapiens, UniProt P05556+P08648). The assay can be described thus: In vitro cell adhesion assay: α5β1 integrin mediated adhesion of K562 cells to fibronectin fragment Fn9-10. Further details: α5β1 integrin mediated adhesion of K562 cells; host or cells: K562 human erythroleukaemia cells. Format: cell-based. The following applies: K562 cells on Fn9-10 coated plates; 0.2 mM MnCl; read-out: b) Cell Adhesion Assay. An excerpt:
The assay determined the ability of compounds to inhibit the α5β1 integrin mediated adhesion of K562 cells to the ligand, a fragment of human fibronectin. The human K562 erythroleukaemia cell line (LGC Promochem, Teddington, Middlesex, UK, Catalogue No. CCL-243) was routinely maintained in RPMI 1640 medium (Sigma-Aldrich Company Ltd, Gillingham, Dorset SP8 4XT, Catalogue No. R0883) containing 10% heat-inactivated foetal calf serum (PAA lab GmbH, Pasching, Austria Catalogue No. PAA-A15-043) and 1% glutamax-1 (Invitrogen Ltd. Paisley, UK Catalogue No. 35050-038) at 37° C. with 5% CO2 at densities between 1×10^5 and 1×10^6 cells/ml.
A DNA fragment encoding the domains 9-10 (amino-acids 1325-1509) of human fibronectin (Swiss-Prot Acession No. P02751) was isolated from cDNA libraries using standard molecular biology and PCR cloning techniques. The cDNA fragment was sub-cloned into a pT7#3.3 expression vector containing a GST-epitope tag (developed at AstraZeneca; Bagnall et al., Protein Expression and Purification, 2003, 27: 1-11) and the fragment termed Fn9-10. Following expression in E. coli, the expressed protein was purified using the GST-tag using standard purification techniques.
For adhesion assay, a 96-well flat bottomed plate (Greiner Bio one ltd., Gloucester GL10 3SX Catalogue No. 655101) was coated overnight at 4° C. with 100 μl of 20 μg/ml Fn9-10 ligand in Dulbecco's PBS (Gibco#14190-94). The plate was then washed twice with 200 μl of PBS and blocked with 100 μl of 3% BSA (SigmaA7888) in PBS for 1 hour at 37° C. The plates were then washed again 3 times with 200 μl of PBS and left empty.
Test compounds were prepared as 10 mM stock solutions in DMSO (Sigma-Aldrich Company Ltd, Gillingham, Dorset SP8 4XT Catalogue No. 154938) and serially diluted with HBSS (Hanks Buffered Salt solution (Gibco Catalogue No. 14170-088)/2% DMSO to give a range of test concentrations at twice required final concentration. Aliquots (50 μl) of each compound dilution were placed into each well of the Fn9-10 coated plates. Each plate also contained control wells: maximum adhesion signal was created using wells containing 50 μl HBSS/2% DMSO and minimum signal corresponding to no adhesion was created using wells containing 50 μl HBSS/2% DMSO/20 mM EDTA (Sigma Catalogue No. E7889).
The K562 cells were cultured to ˜1×10^6 cells/ml and each culture suspension pooled. Cells were centrifuged at 1200 rpm for 2 mins and the pellets washed with HBSS followed by HBSS/50 mM HEPES (Sigma Catalogue No. H0887). Cell pellets were pooled and resuspended in HBSS/0.4 mM manganese chloride/50 mM HEPES (MnCl; Sigma Catalogue No. M1787) to give a final concentration of 4×10^6 cells/ml.
The assay was initiated by the addition of 50 μl of cell suspension into each coated well (200,000 cells/well), thus resulting in final desired compound concentration and a final MnCl concentration of 0.2 mM. The plates were incubated for 45 minutes at 37° C. 5% CO2. After this time, the solution was flicked off as waste and the remaining cell layer carefully washed twice with 200 μl of PBS and then fixed with 200 μl of 100% ethanol for 30 minutes.
After fixation, the ethanol was flicked off to waste and 100 μl of 0.1% Crystal violet stain was added to each well and incubated at ambient temperature for 15 minutes. Excess stain was removed by rinsing ˜3 times under cold slow running water. The plates were blotted over tissue then solubilised by adding 50 μl of 1% Triton X100 (Sigma Catalogue No. T9284) and shaking at 500 rpm for 30 mins on plate shaker. Finally, 100 μl of deionised water was added to each well and the absorbance was determined at 590 nm on a spectrophotometer. The minimum value was subtracted from all values and the absorbance signal was plotted against compound concentration to generate IC50 data.

Assay [2] concerns the target T1, α5β1 integrin. The assay can be described thus: In vitro binding assay: inhibition of binding of α5β1 integrin to fibronectin fragment Fn9-10 (Origen electrochemiluminescence). The following applies: human a5b1 purified from placenta; biotinylated Fn9-10 ligand. The procedure: The assay determined the ability of compounds to inhibit binding of a5 μl integrin to a cognate ligand, a fragment of human fibronectin. The assay used Origen technology (IGEN International) to measure the compound activity. Briefly, (α5β1 integrin was coated onto epoxy-paramagnetic beads (Dynal Biotech UK, Bromborough, Wirral, CH62 3QL, UK, Catalogue No 143.02) and biotinylated-fibronectin ligand was coupled to strepatividin labelled BV-Tag-NHS-Ester (BioVeris Corporation, Witney, Oxfordshire, OX28 4GE, UK, Catalogue No JSF396). The ruthenium-labelled BV-Tag emits a electrochemiluminescence signal upon stimulation which is detected by the Origen reader. Thus, interaction of integrin and ligand causes association of bead and tag and the resulting electrochemiluminescence signal reflects the level of integrin interaction with fibronectin.
12 μg of human a5 μl purified from placenta (Chemicon, Chandlers Ford, Hampshire, SO53 4NF, UK, Catalogue No CC1055-K) was coated onto surface-activated 3 mg of epoxy-paramagnetic beads in PBS and 1M ammonium sulfate following manufacturers instructions at 4° C. for 24 hours. Coated beads were then washed into Assay Buffer (25 mM Hepes, 150 mM NaCl, 1 mM MgCl, 1 mM MnCl, 0.1% Tween, pH7.4) to give a final concentration of 20 μg of α5β1/ml. Immediately prior to the assay, the beads were further diluted ×40 fold in Assay Buffer to give a concentration of 0.5 μg α5β1/ml.
A DNA fragment encoding the domains 9-10 (amino-acids 1325-1509) of human fibronectin (Swiss-Prot Acession No. P02751) was isolated from cDNA libraries using standard molecular biology and PCR cloning techniques. The cDNA fragment was sub-cloned into a pT73.3 expression vector containing a GST-epitope tag (developed at AstraZeneca; Bagnall et al., Protein Expression and Purification, 2003, 27: 1-11). Following expression in E. coli, the expressed protein, termed Fn9-10, was purified using the GST-tag using standard purification techniques. The recombinant Fn9-10 was subsequently biotinylated using a EZ-link Sulfo-NHS-LC-Biotinylation kit (Perbio Science UK Ltd., Cramlington, Northumberland, NE23 1WA, UK, Catalogue No. 21335) and made to give a final concentration of approximately 1 mg/ml. BV-Tag-NHS-Ester was labelled with streptavidin by incubation at room temperature following manufacturers instructions and buffer-exchanged into PBS to give a concentration of 0.5 mg/ml. […]
For the assay, […] of a5b1-bead suspension and 40 μl of the Fn9-10/BV-Tag preincubated solution were added to each well containing 20 μl of compound or control solution. Assay plates were then incubated at room temperature for a minimum of 6 hours before being analysed on the Origen plate reader. […]

T1 sequence (P08648 42-894 limits assumed): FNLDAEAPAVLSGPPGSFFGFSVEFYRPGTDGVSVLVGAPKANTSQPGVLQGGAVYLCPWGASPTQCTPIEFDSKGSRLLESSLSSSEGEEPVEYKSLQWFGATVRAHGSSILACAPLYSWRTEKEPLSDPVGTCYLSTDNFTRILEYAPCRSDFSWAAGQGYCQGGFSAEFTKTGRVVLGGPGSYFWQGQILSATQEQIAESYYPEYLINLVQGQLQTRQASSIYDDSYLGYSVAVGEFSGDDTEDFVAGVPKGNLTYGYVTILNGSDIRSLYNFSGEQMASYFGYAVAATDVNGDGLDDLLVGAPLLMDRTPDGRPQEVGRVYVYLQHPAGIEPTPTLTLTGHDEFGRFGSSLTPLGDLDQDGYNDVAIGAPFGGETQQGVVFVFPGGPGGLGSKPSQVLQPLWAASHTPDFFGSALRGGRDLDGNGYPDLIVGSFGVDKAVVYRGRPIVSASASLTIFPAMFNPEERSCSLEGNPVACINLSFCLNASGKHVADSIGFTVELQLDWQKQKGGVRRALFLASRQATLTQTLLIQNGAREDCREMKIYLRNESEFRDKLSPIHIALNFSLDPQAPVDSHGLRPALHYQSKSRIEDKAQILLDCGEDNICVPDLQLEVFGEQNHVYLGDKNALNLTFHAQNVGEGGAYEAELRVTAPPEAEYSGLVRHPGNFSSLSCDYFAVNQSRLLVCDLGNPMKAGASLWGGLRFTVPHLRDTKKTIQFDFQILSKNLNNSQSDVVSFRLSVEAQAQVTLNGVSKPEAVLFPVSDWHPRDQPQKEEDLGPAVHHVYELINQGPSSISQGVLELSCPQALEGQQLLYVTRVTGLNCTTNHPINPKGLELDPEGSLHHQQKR
T1 sequence (P08648 895-1049 partner limits assumed): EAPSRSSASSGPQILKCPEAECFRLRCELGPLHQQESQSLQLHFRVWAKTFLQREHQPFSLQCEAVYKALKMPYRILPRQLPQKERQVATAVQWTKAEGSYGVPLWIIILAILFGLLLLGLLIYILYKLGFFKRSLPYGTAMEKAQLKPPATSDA
T1 sequence (P05556 21-798): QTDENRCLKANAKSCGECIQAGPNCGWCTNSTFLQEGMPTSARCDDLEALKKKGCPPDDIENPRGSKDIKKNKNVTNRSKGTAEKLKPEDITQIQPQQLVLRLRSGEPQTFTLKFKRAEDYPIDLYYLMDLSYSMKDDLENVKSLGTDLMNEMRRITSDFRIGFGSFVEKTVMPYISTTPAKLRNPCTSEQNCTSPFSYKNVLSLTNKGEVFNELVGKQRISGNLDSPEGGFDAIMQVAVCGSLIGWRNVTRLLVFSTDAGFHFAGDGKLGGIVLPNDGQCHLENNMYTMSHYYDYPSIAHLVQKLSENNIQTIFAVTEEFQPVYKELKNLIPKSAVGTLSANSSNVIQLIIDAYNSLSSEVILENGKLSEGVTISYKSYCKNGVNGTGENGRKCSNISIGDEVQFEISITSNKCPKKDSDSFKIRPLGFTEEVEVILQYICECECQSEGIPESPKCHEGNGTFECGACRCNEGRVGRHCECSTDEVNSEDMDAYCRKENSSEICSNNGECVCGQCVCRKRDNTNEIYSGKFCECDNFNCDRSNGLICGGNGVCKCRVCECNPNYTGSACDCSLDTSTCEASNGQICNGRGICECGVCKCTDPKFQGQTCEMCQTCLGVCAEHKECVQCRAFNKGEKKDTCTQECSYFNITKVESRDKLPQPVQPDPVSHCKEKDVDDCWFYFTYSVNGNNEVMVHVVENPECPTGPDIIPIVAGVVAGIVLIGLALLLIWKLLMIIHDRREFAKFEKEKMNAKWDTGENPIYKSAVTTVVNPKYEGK

Take `O=C(N[C@@H](Cc1ccc(N2CCN(S(=O)(=O)c3ccccc3)CC2)cn1)C(=O)O)c1c(Cl)cccc1Cl` [N-(2,6-dichlorobenzoyl)-3-{5-[4-(phenylsulfonyl)piperazin-1-yl]pyridin-2-yl}-L-alanine]: the IC50 in assay [1] is no less than 100 µM.
As for `CS(=O)(=O)N1CC=C(c2ccc(C[C@H](NC(=O)c3c(Cl)cccc3Cl)C(=O)O)nc2)CC1`, the values for the IC50 in assay [1] and in assay [2] were 70.5 µM and 24.7 µM, respectively.
As for `CCCS(=O)(=O)N1CC=C(c2ccc(C[C@H](NC(=O)c3c(Cl)cccc3Cl)C(=O)O)nc2)CC1`, the IC50 was found to be 7 µM in assay [1] and 13.9 µM in assay [2].
For `O=C(N[C@@H](Cc1ccc(C2=CCN(C(=O)c3cccc(F)c3)CC2)cn1)C(=O)O)c1c(Cl)cccc1Cl` the same measures were 48 µM and 7.2 µM.
The corresponding values for `O=C(N[C@@H](Cc1ccc(C2=CCN(Cc3ccc(F)cc3)CC2)cn1)C(=O)O)c1c(Cl)cccc1Cl` are 13.2 µM and 6 µM.
As for `CC(=O)NCC(=O)N1CC=C(c2ccc(C[C@H](NC(=O)c3c(Cl)cccc3Cl)C(=O)O)nc2)CC1` [3-[1′-(N-acetylglycyl)-1′,2′,3′,6′-tetrahydro-3,4′-bipyridin-6-yl]-N-(2,6-dichlorobenzoyl)-L-alanine], the IC50 in assay [1] is no less than 100 µM.
